Reference: paper PMC9841533, “Microtubule-Stabilizing 1,2,4-Triazolo[1,5-a]pyrimidines as Candidate Therapeutics for Neurodegenerative Disease: Matched Molecular Pair Analyses and Computational Studies Reveal New Structure–Activity Insights” (Journal of Medicinal Chemistry, 2022)
Like-named read-outs stand apart in the source and are kept apart here.

Legend:
[1] = tested on: total α-tubulin (α-Tub) levels in QBI293 cells; test: QBI293 cell assay: total α-tubulin ELISA; format: cell-based
How it was run: (§1)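 AcTub and α-Tub were quantified by ELISA in whole-cell extracts normalized by BCA protein and expressed relative to vehicle. AcTub changes were also scaled to a 100 nM reference stabilizer control.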

[2] = tested on: AcTub levels in OA-treated primary mouse cortical neurons; test: Okadaic acid (OA) assay, AcTub ELISA in primary mouse cortical neurons; format: cell-based; settings: OA 15 nM, 8 h, compound 1 and 10 μM
Method: To further evaluate the activity of Class I alkyne derivatives and hybrid compounds, several compounds were also assessed for their ability to compensate for MT deficits in primary neuron cultures that were treated with the phosphatase inhibitor, okadaic acid (OA). As previously described,[11] treatment of rodent neurons with OA results in tau hyperphosphorylation and MT collapse that presumably results, at least in part, from tau disengagement from MTs. Co-treatment of neurons with Class I TPDs, such as 1, along with OA prevents this MT collapse, with a resulting normalization of MT structure and neuronal processes which can be observed upon visual inspection of the neurons or through an assessment of neuronal AcTub levels, while Class II TPDs are generally unable to provide meaningful compensation of MT deficits, especially when tested at higher (i.e., 10 μM) compound concentration.[11],[12]
Figure 4 ELISA determination of AcTub levels in homogenates from primary rat cortical neurons treated with either vehicle, or OA (15 nM) in the presence of vehicle or TPD 1, 8, 9 (A); and primary mouse cortical neurons treated with vehicle, or OA (15 nM) in the presence of vehicle or TPD 1, 24, 45, 46, 53, 54 (B). Error bars represent SEM, with ***, p < 0.001 relative to vehicle treatment in the absence of OA as determined by one-way ANOVA.
Compound-induced changes in acetylated-tubulin and α-tubulin in QBI293 cells or primary mouse or rat neurons were as previously described.[11],[12] For compound testing, QBI293 cells were plated at a density of 2 × 10^5 cells/well in 12-well plates. The plated cells were incubated overnight, after which the medium was aspirated and fresh medium containing vehicle (0.25–0.3% DMSO) or test compound was added. Test compounds were prepared as 4–20 mM stock solutions in 100% DMSO, and these were diluted in culture medium prior to addition to the QBI293 cells. After 4 h incubation, whole-cell extracts were prepared from the QBI293 cells as described[11] and the supernatant fraction from each sample was assessed for protein content by bicinchoninic acid (BCA) assay. The amount of acetyl-tubulin (AcTub) and α-tubulin (αTub) within the cell extract samples was quantified using specific enzyme-linked immunosorbent assays (ELISA), as previously described.[11] Acetyl-tubulin levels were determined in a similar manner in rat or mouse cortical neuron cultures in which embryonic dissociated cortical neurons were plated at 3 × 10^5 cells/well in poly-D-lysine-coated 12-well plates, essentially as previously described.[11] The neurons were allowed to grow for 10 days before they were treated for 8 h with 15 nM okadaic acid in the presence or absence of test compound prepared as described above, or vehicle (0.25% DMSO). Culture homogenates were prepared for the determination of AcTub levels by ELISA as previously described.[11]
VehicleVehicleVehicleVehicle25 (1 µM)
Figure S2. Assessment of AcTub levels in primary mouse cortical neurons treated with vehicle,
(§2) (1 picture or pasted object on this page, not shown here)

[3] = tested on: acetylated α-tubulin (AcTub) levels in QBI293 cells; test: QBI293 cell assay of MT stabilization: acetylated α-tubulin ELISA; format: cell-based
How it was run: as §1

[4] = Resazurin cell viability assay, QBI293; format: cell-based; settings: human, QBI293 cells, three biological replicates, read-out: QBI293 CC50 ± SD
Method: (§3) Cell Culture. QBI293 and HeLa cells were cultured in DMEM supplemented with 10% heat-
(§4) inactivated FBS and 1% penicillin-streptomycin. Cells were grown in T175 cell culture flasks maintained
(§5) at 37 ℃ in 5% CO2 and sub-c ultured when at 60-8 0% cell confluence.
(§6) Resazurin Cell Viability Assay. Cytotoxicity in QBI293 and HeLa cells was measured using the
(§7) resazurin cell viability assay.1 Test compounds were serially diluted in DMSO and added to 96-well
(§8) polystyrene assay plates to give final assay concentrations ranging from 100 nM to 4000 nM (1 µL; 1%
(§9) total DMSO). Fresh medium was added to the assay plate (49 µL/well). QBI293 or HeLa cells were
(§10) cells/well. Assay plates were incubated at 37 °C and 5% CO2 for 48 h, followed by addition of 20 µL 0.5
(§11) mM resazurin (Alfa Aesar, Cat. B21187) in PBS to each well. Assay plates were incubated in the dark for
as §2
(§12) 4 h at 37 °C. Fluorescence was measured at 531 nm and 595 nm excitation and emission wavelengths,
(§13) respectively, using a 2104 EnVision® multilabel plate reader. The viability of each well was normalized to
(§14) positive and negative controls in each assay plate. Dose-response curves were generated and CC50 values
(§15) calculated with GraphPad Prism, version 9.3 (San Diego, CA) using a sigmoidal four parameter logistic
(§16) curve. The means ± standard deviations from three biological replicates are shown.
(§17) (1) O'Brien, J.; Wilson, I.; Orton, T.; Pognan, F. Investigation of the Alamar Blue (resazurin) fluorescent
(§18) dye for the assessment of mammalian cell cytotoxicity. Eur. J. Biochem. 2000, 267 (17), 5421-5426.

[5] = tested on: acetylated α-tubulin (AcTub) levels in QBI293 cells; parameters: method as in PMID 26980057, PMID 33411523; settings: activity reported in previous studies; cited from earlier work
[6] = tested on: de-tyrosinated α-tubulin (GluTub) in brain of WT mice; test: Brain PD: Glu-tubulin in brain tissue after compound treatment; format: in vivo, mouse; settings: WT CD-1 mice, 1 mg/kg i.p. once daily for two consecutive days
Method: Finally, to evaluate target engagement in the CNS, PD studies were conducted to determine compound-dependent elevations in the stable MT marker, de-tyrosinated α-tubulin (GluTub), in brain homogenates from compound-treated WT mice.
All animal protocols were approved by the University of Pennsylvania Institutional Animal Care and Use Committee (IACUC). […] Compounds were diluted from 20 or 40 mM DMSO stock solutions into 30% Kolliphor EL (Sigma-Aldrich) phosphate-buffered saline, pH 7.4. After 4 h following the second injection, mice were euthanized and cortices and hippocampi were isolated from each brain and placed in 0.2 mL of ice-cold radioimmunoprecipitation assay (RIPA) buffer (50 mM Tris, 150 mM NaCl, 5 mM EDTA, 0.5% sodium deoxycholate, 1% NP-40, 0.1% sodium dodecyl sulfate (SDS), pH 8.0) containing protease inhibitor (PI) cocktail (Sigma-Aldrich), 1 mM phenylmethylsulfonyl fluoride (PMSF) (Sigma-Aldrich), and 3 μM trichostatin A (TSA) (Sigma-Aldrich). The brain samples were homogenized with a handheld battery-operated mixer and subsequently sonicated. After centrifugation at 100,000g for 30 min at 4 °C, supernatant samples were transferred to a new tube and the pellets were resuspended in 0.15 mL of RIPA buffer and again homogenized, sonicated, and centrifuged. The supernatant from the second centrifugation was pooled with that from the first. The combined supernatant samples were assessed for protein concentration using a BCA assay (Thermo Fisher Scientific), and equal protein amounts from each brain sample underwent separation by 10% sodium dodecyl sulfate polyacrylamide gel electrophoresis (SDS-PAGE) followed by transfer onto nitrocellulose membranes essentially as previously described.[11] […] Incubation with infrared dye-conjugated secondary antibodies and subsequent imaging and quantification of the blots on the Odyssey imaging system were as described.[11]

[7] = Resazurin cell viability assay, HeLa; format: cell-based; settings: human, HeLa cells, three biological replicates, read-out: HeLa CC50 ± SD
Method: as §3, §4, §5, §6, §7, §8, §9, §10, §11, §2, §12, §13, §14, §15, §16, §17, §18

[8] = 4 h, 1 uM compound, read-out: AlfaTub (1uM)
[9] = 4 h, 10 uM compound, read-out: AlfaTub (10 uM)
[10] = 4 h incubation, 1 μM, read-out: α-Tub 1 μM, fold-change compared to vehicle (DMSO)-treated cells
[11] = 4 h incubation, 10 μM, read-out: α-Tub 10 μM, fold-change compared to vehicle (DMSO)-treated cells
[12] = 4 h, 1 uM compound, read-out: AcTub (1uM)
[13] = 4 h, 10 uM compound, read-out: AcTub (10 uM)
[14] = 4 h incubation, 1 μM, read-out: AcTub 1 μM, fold-change compared to vehicle (DMSO)-treated cells
[15] = 4 h incubation, 10 μM, read-out: AcTub 10 μM, fold-change compared to vehicle (DMSO)-treated cells

| SMILES | fold induction at 1 µM [1, 8] | fold induction at 10 µM [1, 9] | fold induction at 1 µM [1, 10] | fold induction at 10 µM [1, 11] | prevention/correction of OA-induced MT collapse (AcTub levels) [2] | AcTub (1 uM - normalized) ([3]; 1 uM compound) | AcTub (10 uM - normalized) ([3]; 10 uM compound) | fold induction at 1 µM [3, 12] | fold induction at 10 µM [3, 13] | AcTub 1 μM, fold-change compared to positive control compound 5 (100 nM) (in parentheses) ([3]; 4 h incubation, 1 μM) [fold-change] | fold induction at 1 µM [3, 14] | AcTub 10 μM, fold-change compared to positive control compound 5 (100 nM) (in parentheses) ([3]; 4 h incubation, 10 μM) [fold-change] | fold induction at 10 µM [3, 15] | CC50 at 48 h [4] [nM] | Class (cellular phenotype) [5] | brain GluTub (GluTub-to-total α-Tub ratio) relative to vehicle-treated mice [6] | CC50 at 48 h [7] [nM] |
| --- | --- | --- | --- | --- | --- | --- | --- | --- | --- | --- | --- | --- | --- | --- | --- | --- | --- |
| C[C@@H](Nc1c(-c2c(F)cc(OCCCO)cc2F)c(Cl)nc2ncnn12)C(C)(C)C [Compound 25, (R)-3-(4-(5-Chloro-7-((3,3-dimethylbutan-2-yl)amino)-[1,2,4]triazolo[1,5-a]pyrimidin-6-yl)-3,5-difluorophenoxy)propan-1-ol] | 0.96 | 1.06 | 0.96 ± 0.03 | 1.06 ± 0.03 | lesser recovery of OA-induced MT collapse | 1.01 | 0.98 | 9.17 | 8.92 | 1.01 | 9.17 ± 0.13 | 0.98 | 8.92 ± 0.36 | – | – | – | – |
| CC(C)[C@@H](C)Nc1c(-c2c(F)cc(C#CCCO)cc2F)c(Cl)nc2ncnn12 [Compound 45, (R)-4-(4-(5-Chloro-7-((3-methylbutan-2-yl)amino)-[1,2,4]triazolo[1,5-a]pyrimidin-6-yl)-3,5-difluorophenyl)but-3-yn-1-ol] | 1 | 0.95 | 1 ± 0.03 | 0.95 ± 0.03 | can prevent the OA-induced MT collapse | 0.48 | 0.82 | 5.9 | 10.1 | 0.48 | 5.9 ± 0.32 | 0.82 | 10.1 ± 0.71 | – | – | – | – |
| CC(C)[C@@H](C)Nc1c(-c2c(F)cc(C#CCCCO)cc2F)c(Cl)nc2ncnn12 [Compound 46, (R)-5-(4-(5-Chloro-7-((3-methylbutan-2-yl)amino)-[1,2,4]triazolo[1,5-a]pyrimidin-6-yl)-3,5-difluorophenyl)pent-4-yn-1-ol] | 1 | 1.37 | 1 ± 0.08 | 1.37 ± 0.05 | can prevent the OA-induced MT collapse | 0.40 | 0.68 | 2.59 | 4.43 | 0.40 | 2.59 ± 0.16 | 0.68 | 4.43 ± 0.56 | – | – | – | – |
| C[C@@H](Nc1c(-c2c(F)cc(C#CCCCO)cc2F)c(Cl)nc2ncnn12)C(C)(C)C [Compound 54, (R)-5-(4-(5-Chloro-7-((3,3-dimethylbutan-2-yl)amino)-[1,2,4]triazolo[1,5-a]pyrimidin-6-yl)-3,5-difluorophenyl)pent-4-yn-1-ol] | 1.19 | 1.14 | 1.19 ± 0.11 | 1.14 ± 0.077 | can prevent the OA-induced MT collapse | 0.74 | 0.87 | 4.78 | 5.59 | 0.74 | 4.78 ± 1 | 0.87 | 5.59 ± 0.26 | – | – | – | – |
| C[C@@H](Nc1c(-c2c(F)cc(C#N)cc2F)c(Cl)nc2ncnn12)C(C)(C)C [Compound 68] | – | – | – | – | – | – | – | – | – | – | – | – | – | 30.7 ± 5.2 | I | significant elevations in brain GluTub | 41.7 ± 3 |
